{"source": "paper PMC4823954", "about": "“From fighting depression to conquering tumors: a novel tricyclic thiazepine compound as a tubulin polymerization inhibitor” (Cell Death & Disease, 2016)", "experiment_in_all_cases": "KINOMEscan", "assay_type_in_all_cases": "binding", "conditions_in_all_cases": "read-out: % Ctrl", "key": {"[1]": {"target": "T1, PIK3CA(E545K) (Homo sapiens, UniProt P42336, E545K)", "T1 construct": "purchased DiscoveRx KINOMEscan"}, "[2]": {"target": "T2, STK39 (Homo sapiens, UniProt Q9UEW8)", "T2 construct": "purchased DiscoveRx KINOMEscan", "outline": "(§1)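 Competition binding panel of 442 non-mutant kinases: test compound at 5 and 10 μM competed with an active-site-directed ligand for 1 h with shaking. Bound kinase was eluted with 0.5 μM ligand and quantified by qPCR; %Ctrl = (compound − positive control)/(DMSO − positive control) × 100, lower meaning tighter binding.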"}, "[3]": {"target": "T3, FLT3 (Homo sapiens, UniProt P36888)", "T3 construct": "purchased DiscoveRx KINOMEscan", "T3 sequence (P36888 27-993)": "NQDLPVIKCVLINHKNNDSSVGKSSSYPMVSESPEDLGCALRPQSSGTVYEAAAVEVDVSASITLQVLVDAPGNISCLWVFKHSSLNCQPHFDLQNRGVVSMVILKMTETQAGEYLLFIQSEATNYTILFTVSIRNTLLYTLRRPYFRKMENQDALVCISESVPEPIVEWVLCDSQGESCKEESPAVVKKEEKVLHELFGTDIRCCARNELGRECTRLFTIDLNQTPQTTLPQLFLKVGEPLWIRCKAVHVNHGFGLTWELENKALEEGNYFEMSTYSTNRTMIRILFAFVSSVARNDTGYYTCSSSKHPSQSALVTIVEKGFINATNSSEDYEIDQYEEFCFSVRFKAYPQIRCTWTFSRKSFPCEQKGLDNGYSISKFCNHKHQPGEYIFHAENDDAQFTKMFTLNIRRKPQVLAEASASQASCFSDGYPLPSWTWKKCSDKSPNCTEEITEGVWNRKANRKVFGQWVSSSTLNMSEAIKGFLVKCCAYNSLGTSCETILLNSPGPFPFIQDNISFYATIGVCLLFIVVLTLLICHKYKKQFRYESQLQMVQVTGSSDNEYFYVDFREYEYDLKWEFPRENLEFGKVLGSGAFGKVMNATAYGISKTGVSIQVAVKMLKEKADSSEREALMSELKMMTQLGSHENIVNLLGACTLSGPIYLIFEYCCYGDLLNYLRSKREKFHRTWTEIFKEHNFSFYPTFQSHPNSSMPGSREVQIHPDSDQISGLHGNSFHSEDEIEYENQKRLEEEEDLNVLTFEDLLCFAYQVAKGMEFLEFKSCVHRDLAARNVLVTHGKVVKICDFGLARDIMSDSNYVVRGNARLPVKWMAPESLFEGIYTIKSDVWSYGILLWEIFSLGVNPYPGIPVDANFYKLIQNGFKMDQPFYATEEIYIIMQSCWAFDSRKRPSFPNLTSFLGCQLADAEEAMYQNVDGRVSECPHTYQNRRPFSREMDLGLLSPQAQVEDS", "outline": "as §1"}, "[4]": {"target": "T4, EPHB4 (Homo sapiens, UniProt P54760)", "T4 construct": "purchased DiscoveRx KINOMEscan", "outline": "as §1"}, "[5]": {"target": "T5, EPHA4 (Homo sapiens, UniProt P54764)", "T5 construct": "purchased DiscoveRx KINOMEscan", "outline": "as §1"}, "[6]": {"target": "T6, CDK3 (Homo sapiens, UniProt Q00526)", "T6 construct": "purchased DiscoveRx KINOMEscan", "outline": "as §1"}, "[7]": {"target": "T7, RSK1(Kin.Dom.1-N-terminal) (Homo sapiens, UniProt Q15418)", "T7 construct": "RSK1(Kin.Dom.1-N-terminal); purchased DiscoveRx KINOMEscan", "T7 sequence (Q15418 1-391 limits assumed)": "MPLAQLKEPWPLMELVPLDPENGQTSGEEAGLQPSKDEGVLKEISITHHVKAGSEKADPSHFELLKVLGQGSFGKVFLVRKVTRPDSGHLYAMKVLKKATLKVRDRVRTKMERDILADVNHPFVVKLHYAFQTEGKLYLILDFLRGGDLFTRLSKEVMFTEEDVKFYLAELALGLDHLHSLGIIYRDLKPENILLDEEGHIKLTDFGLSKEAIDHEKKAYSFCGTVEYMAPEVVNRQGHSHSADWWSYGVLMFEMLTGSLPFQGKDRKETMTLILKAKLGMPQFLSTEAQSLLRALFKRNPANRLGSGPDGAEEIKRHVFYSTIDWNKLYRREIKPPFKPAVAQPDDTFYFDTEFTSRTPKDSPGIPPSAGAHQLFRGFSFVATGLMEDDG", "outline": "as §1"}, "[8]": {"target": "T8, TXK (Homo sapiens, UniProt P42681)", "T8 construct": "purchased DiscoveRx KINOMEscan", "outline": "as §1"}, "[9]": {"target": "T9, PAK7 (Homo sapiens, UniProt Q9P286)", "T9 construct": "purchased DiscoveRx KINOMEscan", "outline": "as §1"}, "[10]": {"target": "T10, GRK1 (Homo sapiens, UniProt Q15835)", "T10 construct": "purchased DiscoveRx KINOMEscan", "outline": "as §1"}, "[11]": {"target": "T11, PDGFRB (Homo sapiens, UniProt P09619)", "T11 construct": "purchased DiscoveRx KINOMEscan", "outline": "as §1"}, "[12]": {"target": "T12, VRK2 (Homo sapiens, UniProt Q86Y07)", "T12 construct": "purchased DiscoveRx KINOMEscan", "outline": "as §1"}, "[13]": {"target": "T13, ERK8 (Homo sapiens, UniProt Q8TD08)", "T13 construct": "purchased DiscoveRx KINOMEscan", "outline": "as §1"}, "[14]": {"target": "T14, STK35 (Homo sapiens, UniProt Q8TDR2)", "T14 construct": "purchased DiscoveRx KINOMEscan", "outline": "as §1"}, "[15]": {"target": "T15, EPHA2 (Homo sapiens, UniProt P29317)", "T15 construct": "purchased DiscoveRx KINOMEscan", "outline": "as §1"}, "[16]": {"target": "T16, AURKA (Homo sapiens, UniProt O14965)", "T16 construct": "purchased DiscoveRx KINOMEscan", "outline": "as §1"}, "[17]": {"target": "T17, SYK (Homo sapiens, UniProt P43405)", "T17 construct": "purchased DiscoveRx KINOMEscan", "outline": "as §1"}, "[18]": {"target": "T18, SNRK (Homo sapiens, UniProt Q9NRH2)", "T18 construct": "purchased DiscoveRx KINOMEscan", "outline": "as §1"}, "[19]": {"target": "T19, PCTK3 (Homo sapiens, UniProt Q07002)", "T19 construct": "purchased DiscoveRx KINOMEscan", "outline": "as §1"}, "[20]": {"target": "T20, PIM2 (Homo sapiens, UniProt Q9P1W9)", "T20 construct": "purchased DiscoveRx KINOMEscan", "outline": "as §1"}, "[21]": {"target": "T21, ABL1(M351T)-phosphorylated (Homo sapiens, UniProt P00519, M351T)", "T21 construct": "purchased DiscoveRx KINOMEscan"}, "[22]": {"target": "T22, TLK1 (Homo sapiens, UniProt Q9UKI8)", "T22 construct": "purchased DiscoveRx KINOMEscan", "outline": "as §1"}, "[23]": {"target": "T23, CTK (Homo sapiens, UniProt P42679)", "T23 construct": "purchased DiscoveRx KINOMEscan", "outline": "as §1"}, "[24]": {"target": "T24, LTK (Homo sapiens, UniProt P29376)", "T24 construct": "purchased DiscoveRx KINOMEscan", "T24 sequence (P29376 17-864)": "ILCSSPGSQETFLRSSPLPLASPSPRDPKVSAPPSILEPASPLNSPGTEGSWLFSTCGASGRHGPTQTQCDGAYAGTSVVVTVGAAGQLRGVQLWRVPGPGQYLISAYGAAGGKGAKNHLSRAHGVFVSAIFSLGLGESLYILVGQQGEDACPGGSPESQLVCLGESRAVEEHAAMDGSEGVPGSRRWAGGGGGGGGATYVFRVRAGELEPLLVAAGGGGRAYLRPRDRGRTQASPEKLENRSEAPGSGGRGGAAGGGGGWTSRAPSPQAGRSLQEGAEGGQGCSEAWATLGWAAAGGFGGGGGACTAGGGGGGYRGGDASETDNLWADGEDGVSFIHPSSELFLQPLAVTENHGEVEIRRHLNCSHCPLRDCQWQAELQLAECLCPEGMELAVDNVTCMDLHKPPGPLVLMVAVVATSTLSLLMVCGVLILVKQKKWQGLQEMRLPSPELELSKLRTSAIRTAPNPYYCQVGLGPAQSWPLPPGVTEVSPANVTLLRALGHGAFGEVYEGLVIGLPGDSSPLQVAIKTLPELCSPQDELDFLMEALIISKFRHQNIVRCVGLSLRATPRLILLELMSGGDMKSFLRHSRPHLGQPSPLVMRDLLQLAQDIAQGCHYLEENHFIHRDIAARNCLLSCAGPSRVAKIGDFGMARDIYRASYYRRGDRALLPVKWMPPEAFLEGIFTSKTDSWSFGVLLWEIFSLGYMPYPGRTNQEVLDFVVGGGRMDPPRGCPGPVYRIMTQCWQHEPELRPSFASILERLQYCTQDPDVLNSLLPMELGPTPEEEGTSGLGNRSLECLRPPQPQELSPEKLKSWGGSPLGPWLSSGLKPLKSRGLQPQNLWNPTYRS", "outline": "as §1"}, "[25]": {"target": "T25, JNK2 (Homo sapiens, UniProt P45984)", "T25 construct": "purchased DiscoveRx KINOMEscan", "outline": "as §1"}, "[26]": {"target": "T26, ERBB4 (Homo sapiens, UniProt Q15303)", "T26 construct": "purchased DiscoveRx KINOMEscan", "T26 sequence (Q15303 26-1308)": "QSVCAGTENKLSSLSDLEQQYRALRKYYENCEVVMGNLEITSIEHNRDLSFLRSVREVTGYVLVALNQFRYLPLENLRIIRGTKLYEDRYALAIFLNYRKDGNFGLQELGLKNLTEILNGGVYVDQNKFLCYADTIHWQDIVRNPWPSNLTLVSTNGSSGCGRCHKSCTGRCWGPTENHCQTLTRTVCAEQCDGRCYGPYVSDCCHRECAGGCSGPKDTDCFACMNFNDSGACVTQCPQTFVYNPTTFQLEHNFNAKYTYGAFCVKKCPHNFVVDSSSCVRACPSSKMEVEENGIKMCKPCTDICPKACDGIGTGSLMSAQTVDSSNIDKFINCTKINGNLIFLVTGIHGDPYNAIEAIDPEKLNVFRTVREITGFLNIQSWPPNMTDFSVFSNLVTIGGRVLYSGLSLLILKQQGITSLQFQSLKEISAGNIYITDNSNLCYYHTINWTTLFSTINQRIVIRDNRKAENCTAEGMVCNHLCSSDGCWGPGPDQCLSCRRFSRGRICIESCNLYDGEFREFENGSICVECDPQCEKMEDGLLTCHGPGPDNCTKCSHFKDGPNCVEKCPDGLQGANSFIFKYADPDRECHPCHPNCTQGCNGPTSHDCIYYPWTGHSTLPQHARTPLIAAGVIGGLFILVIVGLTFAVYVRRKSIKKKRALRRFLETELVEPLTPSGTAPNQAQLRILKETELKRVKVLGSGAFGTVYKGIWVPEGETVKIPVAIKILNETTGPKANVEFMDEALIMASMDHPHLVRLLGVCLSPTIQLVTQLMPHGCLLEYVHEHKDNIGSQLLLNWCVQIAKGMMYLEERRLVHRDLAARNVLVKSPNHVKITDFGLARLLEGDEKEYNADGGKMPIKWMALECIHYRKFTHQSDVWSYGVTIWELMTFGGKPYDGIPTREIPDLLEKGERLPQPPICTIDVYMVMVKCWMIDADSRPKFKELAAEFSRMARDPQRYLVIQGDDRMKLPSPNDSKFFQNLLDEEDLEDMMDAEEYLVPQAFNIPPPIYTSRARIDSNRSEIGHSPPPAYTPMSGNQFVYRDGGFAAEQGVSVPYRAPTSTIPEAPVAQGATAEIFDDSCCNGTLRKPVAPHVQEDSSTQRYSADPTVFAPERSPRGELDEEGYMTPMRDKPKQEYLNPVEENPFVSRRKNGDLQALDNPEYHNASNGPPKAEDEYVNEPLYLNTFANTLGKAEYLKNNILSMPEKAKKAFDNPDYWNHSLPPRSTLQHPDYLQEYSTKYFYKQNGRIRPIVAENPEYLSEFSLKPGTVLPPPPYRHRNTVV", "outline": "as §1"}, "[27]": {"target": "T27, PFCDPK1(P.falciparum) (Plasmodium falciparum, UniProt P62344)", "T27 construct": "purchased DiscoveRx KINOMEscan", "outline": "as §1"}, "[28]": {"target": "T28, KIT(V559D,T670I) (Homo sapiens, UniProt P10721, T670I/V559D)", "T28 construct": "purchased DiscoveRx KINOMEscan", "T28 sequence (P10721 26-976 V559D/T670I)": "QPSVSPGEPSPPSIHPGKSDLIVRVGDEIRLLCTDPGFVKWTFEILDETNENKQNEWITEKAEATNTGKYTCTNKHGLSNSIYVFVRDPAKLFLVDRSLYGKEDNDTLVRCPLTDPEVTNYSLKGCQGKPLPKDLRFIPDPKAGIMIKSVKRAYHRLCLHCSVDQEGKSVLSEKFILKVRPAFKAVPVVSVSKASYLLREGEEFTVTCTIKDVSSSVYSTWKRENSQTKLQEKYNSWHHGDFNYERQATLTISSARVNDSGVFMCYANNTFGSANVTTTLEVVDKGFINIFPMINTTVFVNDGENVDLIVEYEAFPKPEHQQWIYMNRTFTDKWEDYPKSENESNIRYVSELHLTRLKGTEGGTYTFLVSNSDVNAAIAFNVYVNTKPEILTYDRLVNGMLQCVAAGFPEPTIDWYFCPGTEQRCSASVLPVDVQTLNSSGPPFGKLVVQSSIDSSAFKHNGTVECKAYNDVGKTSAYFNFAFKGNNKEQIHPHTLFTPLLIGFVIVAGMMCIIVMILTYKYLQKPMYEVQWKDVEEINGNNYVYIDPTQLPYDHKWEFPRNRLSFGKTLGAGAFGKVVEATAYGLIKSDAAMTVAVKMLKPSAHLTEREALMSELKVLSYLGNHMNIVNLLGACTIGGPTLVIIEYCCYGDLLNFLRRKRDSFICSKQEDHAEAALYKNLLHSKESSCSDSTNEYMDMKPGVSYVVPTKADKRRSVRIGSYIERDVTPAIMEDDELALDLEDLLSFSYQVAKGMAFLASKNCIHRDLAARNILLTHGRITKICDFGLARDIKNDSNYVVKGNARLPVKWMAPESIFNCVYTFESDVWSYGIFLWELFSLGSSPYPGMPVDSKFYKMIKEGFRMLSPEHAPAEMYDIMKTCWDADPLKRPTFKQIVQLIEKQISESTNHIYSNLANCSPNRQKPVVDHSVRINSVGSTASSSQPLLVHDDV"}, "[29]": {"target": "T29, MELK (Homo sapiens, UniProt Q14680)", "T29 construct": "purchased DiscoveRx KINOMEscan", "T29 sequence (Q14680 whole entry)": "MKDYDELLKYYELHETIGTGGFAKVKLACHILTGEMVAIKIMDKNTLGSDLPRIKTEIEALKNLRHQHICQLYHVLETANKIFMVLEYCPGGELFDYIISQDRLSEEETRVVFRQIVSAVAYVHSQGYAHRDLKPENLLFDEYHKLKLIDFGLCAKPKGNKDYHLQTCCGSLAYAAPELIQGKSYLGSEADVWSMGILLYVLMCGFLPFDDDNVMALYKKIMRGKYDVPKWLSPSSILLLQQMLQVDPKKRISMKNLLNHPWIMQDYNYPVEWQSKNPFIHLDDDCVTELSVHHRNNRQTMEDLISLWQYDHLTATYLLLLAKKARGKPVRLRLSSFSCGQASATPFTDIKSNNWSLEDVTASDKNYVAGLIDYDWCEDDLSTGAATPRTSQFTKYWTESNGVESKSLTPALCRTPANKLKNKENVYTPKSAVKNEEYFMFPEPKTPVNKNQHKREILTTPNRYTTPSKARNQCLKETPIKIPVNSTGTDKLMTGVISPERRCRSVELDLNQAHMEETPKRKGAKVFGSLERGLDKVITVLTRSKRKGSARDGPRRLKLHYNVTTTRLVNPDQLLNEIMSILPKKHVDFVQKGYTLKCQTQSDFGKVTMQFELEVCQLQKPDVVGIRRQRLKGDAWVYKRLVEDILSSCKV", "outline": "as §1"}, "[30]": {"target": "T30, EPHA3 (Homo sapiens, UniProt P29320)", "T30 construct": "purchased DiscoveRx KINOMEscan", "outline": "as §1"}}}
{"compound": "Cc1ccc(C2=Nc3cccnc3S(=O)(=O)c3ccccc32)cc1", "note": "[TBPT, 6-(p-tolyl)benzo[f] pyrido[2,3-b][1,4] thiazepine 11,11-dioxide]", "values": [{"measurement": "remaining binding at 5 µM", "setting": "[1]; 5 μM", "value": 81, "unit": "%"}, {"measurement": "remaining binding at 10 µM", "setting": "[1]; 10 μM", "value": 100, "unit": "%"}, {"measurement": "remaining binding at 5 µM", "setting": "[2]; 5 μM", "value": 100, "unit": "%"}, {"measurement": "remaining binding at 10 µM", "setting": "[2]; 10 μM", "value": 62, "unit": "%"}, {"measurement": "remaining binding at 5 µM", "setting": "[3]; 5 μM", "value": 100, "unit": "%"}, {"measurement": "remaining binding at 10 µM", "setting": "[3]; 10 μM", "value": 68, "unit": "%"}, {"measurement": "remaining binding at 5 µM", "setting": "[4]; 5 μM", "value": 100, "unit": "%"}, {"measurement": "remaining binding at 10 µM", "setting": "[4]; 10 μM", "value": 98, "unit": "%"}, {"measurement": "remaining binding at 5 µM", "setting": "[5]; 5 μM", "value": 100, "unit": "%"}, {"measurement": "remaining binding at 10 µM", "setting": "[5]; 10 μM", "value": 96, "unit": "%"}, {"measurement": "remaining binding at 5 µM", "setting": "[6]; 5 μM", "value": 100, "unit": "%"}, {"measurement": "remaining binding at 10 µM", "setting": "[6]; 10 μM", "value": 100, "unit": "%"}, {"measurement": "remaining binding at 5 µM", "setting": "[7]; 5 μM", "value": 100, "unit": "%"}, {"measurement": "remaining binding at 10 µM", "setting": "[7]; 10 μM", "value": 74, "unit": "%"}, {"measurement": "remaining binding at 5 µM", "setting": "[8]; 5 μM", "value": 100, "unit": "%"}, {"measurement": "remaining binding at 10 µM", "setting": "[8]; 10 μM", "value": 75, "unit": "%"}, {"measurement": "remaining binding at 5 µM", "setting": "[9]; 5 μM", "value": 78, "unit": "%"}, {"measurement": "remaining binding at 10 µM", "setting": "[9]; 10 μM", "value": 95, "unit": "%"}, {"measurement": "remaining binding at 5 µM", "setting": "[10]; 5 μM", "value": 100, "unit": "%"}, {"measurement": "remaining binding at 10 µM", "setting": "[10]; 10 μM", "value": 100, "unit": "%"}, {"measurement": "remaining binding at 5 µM", "setting": "[11]; 5 μM", "value": 68, "unit": "%"}, {"measurement": "remaining binding at 10 µM", "setting": "[11]; 10 μM", "value": 100, "unit": "%"}, {"measurement": "remaining binding at 5 µM", "setting": "[12]; 5 μM", "value": 100, "unit": "%"}, {"measurement": "remaining binding at 10 µM", "setting": "[12]; 10 μM", "value": 69, "unit": "%"}, {"measurement": "remaining binding at 5 µM", "setting": "[13]; 5 μM", "value": 94, "unit": "%"}, {"measurement": "remaining binding at 10 µM", "setting": "[13]; 10 μM", "value": 100, "unit": "%"}, {"measurement": "remaining binding at 5 µM", "setting": "[14]; 5 μM", "value": 97, "unit": "%"}, {"measurement": "remaining binding at 10 µM", "setting": "[14]; 10 μM", "value": 100, "unit": "%"}, {"measurement": "remaining binding at 5 µM", "setting": "[15]; 5 μM", "value": 87, "unit": "%"}, {"measurement": "remaining binding at 10 µM", "setting": "[15]; 10 μM", "value": 95, "unit": "%"}, {"measurement": "remaining binding at 5 µM", "setting": "[16]; 5 μM", "value": 100, "unit": "%"}, {"measurement": "remaining binding at 10 µM", "setting": "[16]; 10 μM", "value": 100, "unit": "%"}, {"measurement": "remaining binding at 5 µM", "setting": "[17]; 5 μM", "value": 100, "unit": "%"}, {"measurement": "remaining binding at 10 µM", "setting": "[17]; 10 μM", "value": 100, "unit": "%"}, {"measurement": "remaining binding at 5 µM", "setting": "[18]; 5 μM", "value": 100, "unit": "%"}, {"measurement": "remaining binding at 10 µM", "setting": "[18]; 10 μM", "value": 100, "unit": "%"}, {"measurement": "remaining binding at 5 µM", "setting": "[19]; 5 μM", "value": 82, "unit": "%"}, {"measurement": "remaining binding at 10 µM", "setting": "[19]; 10 μM", "value": 100, "unit": "%"}, {"measurement": "remaining binding at 5 µM", "setting": "[20]; 5 μM", "value": 100, "unit": "%"}, {"measurement": "remaining binding at 10 µM", "setting": "[20]; 10 μM", "value": 100, "unit": "%"}, {"measurement": "remaining binding at 5 µM", "setting": "[21]; 5 μM", "value": 81, "unit": "%"}, {"measurement": "remaining binding at 10 µM", "setting": "[21]; 10 μM", "value": 100, "unit": "%"}, {"measurement": "remaining binding at 5 µM", "setting": "[22]; 5 μM", "value": 93, "unit": "%"}, {"measurement": "remaining binding at 10 µM", "setting": "[22]; 10 μM", "value": 97, "unit": "%"}, {"measurement": "remaining binding at 5 µM", "setting": "[23]; 5 μM", "value": 94, "unit": "%"}, {"measurement": "remaining binding at 10 µM", "setting": "[23]; 10 μM", "value": 100, "unit": "%"}, {"measurement": "remaining binding at 5 µM", "setting": "[24]; 5 μM", "value": 100, "unit": "%"}, {"measurement": "remaining binding at 10 µM", "setting": "[24]; 10 μM", "value": 100, "unit": "%"}, {"measurement": "remaining binding at 5 µM", "setting": "[25]; 5 μM", "value": 99, "unit": "%"}, {"measurement": "remaining binding at 10 µM", "setting": "[25]; 10 μM", "value": 100, "unit": "%"}, {"measurement": "remaining binding at 5 µM", "setting": "[26]; 5 μM", "value": 93, "unit": "%"}, {"measurement": "remaining binding at 10 µM", "setting": "[26]; 10 μM", "value": 99, "unit": "%"}, {"measurement": "remaining binding at 5 µM", "setting": "[27]; 5 μM", "value": 100, "unit": "%"}, {"measurement": "remaining binding at 10 µM", "setting": "[27]; 10 μM", "value": 100, "unit": "%"}, {"measurement": "remaining binding at 5 µM", "setting": "[28]; 5 μM", "value": 94, "unit": "%"}, {"measurement": "remaining binding at 10 µM", "setting": "[28]; 10 μM", "value": 100, "unit": "%"}, {"measurement": "remaining binding at 5 µM", "setting": "[29]; 5 μM", "value": 100, "unit": "%"}, {"measurement": "remaining binding at 10 µM", "setting": "[29]; 10 μM", "value": 100, "unit": "%"}, {"measurement": "remaining binding at 5 µM", "setting": "[30]; 5 μM", "value": 80, "unit": "%"}, {"measurement": "remaining binding at 10 µM", "setting": "[30]; 10 μM", "value": 100, "unit": "%"}]}
